Results on one molecule are retold here after patent US7713967B2, “Therapeutic substituted hydantoins, and related compounds” (Allergan, Inc., priority 2008, dated 2010).

This assay has as its system lashes and adjacent hairs. As to the kind of experiment: Clinical observation of lashes and adjacent hairs in glaucoma patients treated in one eye. It is filed as in vivo. The source says: In the course of treating patients having glaucoma, treatment may only be appropriate in one eye. […] The lash appearance on the lids of the treated eyes would have appeared quite attractive if it represented a bilateral phenomenon. As a result of its asymmetric nature, the long lashes on one side could be construed as disturbing from a cosmetic standpoint. A systemic examination was preformed as a result of the asymmetric phenomenon. It soon became apparent that this altered appearance was not an isolated finding. […] Definite differences could be identified to varying degrees in the lashes and adjacent hairs of all patients who were taking the drug on a unilateral basis for longer than 6 months.
The changes in the lashes were apparent on gross inspection in several patients once attention was focused on the issue. In those with light colored hair and lashes, the differences were only seen easily with the aid of the high magnification and lighting capabilities of the slit lamp biomicroscope. In the course of glaucoma follow-up examination, attention is generally immediately focused on the eye itself. As a result of the high power magnification needed only one eye is seen at a time and the eye is seen at a high enough power that the lashes are not in focus. […]

Take `CCNC(=O)CCC/C=C\C[C@@H]1[C@@H](/C=C/[C@@H](O)CCc2ccccc2)[C@H](O)C[C@@H]1O` [bimatoprost]: the “lash appearance in the treated eye versus the non-treated eye” value (glaucoma patient treated in one eye only) was “longer, thicker, and fuller”. For the setting “multiple parameters of hair appearance, many subjects”, the “hair growth in treated versus control areas” value was “stimulated”.
